Results reported in patent US12570615B2, “Quinazolinone derivatives” (Hoffmann-La Roche Inc., priority 2021, dated 2026).

Columns and labels:
BRAF (V600E) = BRAF (V600E) (Homo sapiens, UniProt P15056, V600E); experiment: KD BRAF (V600E) (Table 1); assay type: binding
BRAF (wt) = BRAF (wt) (Homo sapiens, UniProt P15056); experiment: KD BRAF (wt) (Table 1); assay type: binding
[1] = system: P-ERK (ERK phospho-T202/Y204) in A375 cells expressing V600E mutated BRAF; experiment: HTRF assay for P-ERK determination in A375 cells (BRAF inhibition); assay type: cell-based; settings: Homo sapiens, A-375, P-ERK level, drug incubation 1 hour, DMSO = 100%, 10 μM Dabrafenib = 0%
Source text: (§1) A375 is a cellular cancer model expressing V600E mutated BRAF and HCT116 a cellular cancer model expressing WT BRAF. First generation BRAF inhibitors such as e.g. dabrafenib induce a paradox effect on tumour cells in that they inhibit the growth of V600E mutated BRAF cells (such as e.g. A375), while they activate growth in WT BRAF cells (such as e.g. HCT 116). ERK 1,2 phosphorylation (terminal member of the phosphorylation cascade of the MAPK pathway) is hereafter reported as main readout for the activation status of the MAPK pathway. DMEM no-phenol red medium supplemented with L-glutamine was purchased from (Thermo Fisher Scientific). Fetal bovine serum (FBS) was purchased from VWR. Advanced ERK phospho-T202/Y204 kit—10,000 tests was purchased from Cisbio cat #64AERPEH. A375 (catalog #CRL-1619) and HCT116 (catalog #CCL-247) cells were originally obtained from American type Culture Collection (ATCC) and banked by the Roche repository. 384-Well microplates utilized were purchased from Greiner Bio-One, 384-well, (With Lid, HiBase, Low volume cat 784-080).
(§2) Prior to the assay, A375 and HCT116 cell lines are maintained in DMEM no-phenol red medium supplemented with 10% fetal bovine serum (FBS). Following compound treatment, P-ERK levels are determined by measuring FRET fluorescence signal induced by selective binding of 2 antibodies provided in the mentioned kit (Cisbio cat #64AERPEH) on ERK protein when phosphorylated at Thr202/Tyr204. Briefly, 8000 cells/well in 12 μl media/well are plated in the 384-well plate and left overnight in the incubator (at 37° C. with 5% CO2-humidified atmosphere), the following day the plate is treated in duplicate with test compounds, dabrafenib and PLX8394 (the latter two as controls) at the following final drug concentrations: 10 μM-3 μM 1 μM-0.3 μM-0.1 μM-0.03 μM-0, 01 μM-0.003 μM-0.001 μM, all wells are subjected to DMSO normalization and drug incubation occurs for 1 hour. Then, […] of a 4× lysis buffer supplied with the kit are added to the wells, the plate is then centrifuged for 30 second (3000 rpm) and incubated on a plate shaker for 1 h at rt.
(§3) At the end of the incubation 4 μL/well of advanced P-ERK antibody solution (prepared according to manufacturer's instruction) followed by 4 μL/well of criptate P-ERK antibody solution (prepared according to manufacturer's instruction) (Cisbio cat #64AERPEH) are added to test wells.
(§4) In order to allow proper data normalization control wells non drug treated reported in the following table are always included in each plate (according to manufacturer's instruction):
(§5) The plate is then centrifuged at 3000 rpm for 30 second, sealed to prevent evaporation and incubated overnight in the dark at room temperature.
(§6) The plate is then analyzed and fluorescence emission value collected through a Pherastast FSX (BMG Labtech) apparatus at […].
(§7) The obtained fluorescence values are processed according to the formula Ratio=[…]*10000 then the average of the ratio on the blank is subtracted to all values.
Data are normalized in the case of A375 cells (BRAF inhibition) considering the average of the ratio (blank subtracted) derived by DMSO only treated cells as 100% and by considering the average of the ratio (blank subtracted) derived by 10 μM Dabrafenib treated cells as 0%. Mean of the normalized points are fitted with sigmoidal curve and IC50 determined.

[2] = system: P-ERK (ERK phospho-T202/Y204) in HCT116 cells expressing WT BRAF; experiment: HTRF assay for P-ERK determination in HCT116 cells (BRAF activation); assay type: cell-based; settings: Homo sapiens, HCT-116, drug incubation 1 hour, concentration giving 50% of the maximum activation achieved by Dabrafenib
Source text: as §1, §2, §3, §4, §5, §6, §7
Data are normalized in the case of HCT116 cells (BRAF activation) considering the average of the ratio (blank subtracted) derived by DMSO only treated cells as 0% and by considering the average of the ratio (blank subtracted) derived by Dabrafenib treated cells at the concentration which provides the highest signal as 100%. Individual points are fitted with either sigmoidal or bell shape curves. The EC50 is the concentration at which activation equal to 50% of the maximum activation achieved by Dabrafenib is obtained.

Sequence of BRAF (wt) (P15056 whole entry): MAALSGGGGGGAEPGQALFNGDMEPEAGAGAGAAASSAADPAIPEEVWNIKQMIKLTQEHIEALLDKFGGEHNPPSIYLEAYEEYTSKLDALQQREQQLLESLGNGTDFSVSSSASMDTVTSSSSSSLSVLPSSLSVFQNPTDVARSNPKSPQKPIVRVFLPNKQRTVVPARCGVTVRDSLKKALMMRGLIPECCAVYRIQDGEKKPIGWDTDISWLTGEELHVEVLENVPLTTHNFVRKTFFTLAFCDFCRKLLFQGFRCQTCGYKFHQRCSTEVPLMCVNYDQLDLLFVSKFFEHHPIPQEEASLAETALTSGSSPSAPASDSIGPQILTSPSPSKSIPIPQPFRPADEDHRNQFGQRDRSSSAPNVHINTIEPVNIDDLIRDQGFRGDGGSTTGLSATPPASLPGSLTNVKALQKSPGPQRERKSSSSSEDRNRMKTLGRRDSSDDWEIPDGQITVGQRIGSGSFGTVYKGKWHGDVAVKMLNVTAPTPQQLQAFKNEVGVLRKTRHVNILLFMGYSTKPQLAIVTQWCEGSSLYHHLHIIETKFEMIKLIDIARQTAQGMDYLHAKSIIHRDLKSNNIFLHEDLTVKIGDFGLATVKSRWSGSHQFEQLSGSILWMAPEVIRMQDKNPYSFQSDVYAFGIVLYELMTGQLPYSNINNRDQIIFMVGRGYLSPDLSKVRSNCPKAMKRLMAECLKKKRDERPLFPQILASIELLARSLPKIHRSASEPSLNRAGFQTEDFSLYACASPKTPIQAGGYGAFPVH
Sequence of BRAF (V600E) (P15056 whole entry V600E): as the sequence (P15056 whole entry) above, with V600E counted along it

Structure (SMILES)	Kd (BRAF (V600E)) [nM]	Kd (BRAF (wt)) [nM]	IC50 [1] [nM]	EC50 [2] [nM]
CC(C)(C)OC(=O)N1CCN(CCn2cnc3ccc(Oc4c(F)ccc(NS(=O)(=O)N5CC[C@@H](F)C5)c4C#N)cc3c2=O)CC1 [Example 10, tert-butyl 4-[2-[6-[2-cyano-6-fluoro-3-[[(3R)-3-fluoropyrrolidin-1-yl]sulfonylamino]phenoxy]-4-oxo-quinazolin-3-yl]ethyl]piperazine-1-carboxylate]	4.82	3.51	36.7	1530
N#Cc1c(NS(=O)(=O)C2CCCC2)ccc(F)c1Oc1ccc2ncn(CCCc3ccccc3)c(=O)c2c1 [Example 11, N-[2-cyano-4-fluoro-3-[4-oxo-3-(3-phenylpropyl)quinazolin-6-yl]oxy-phenyl]cyclopentanesulfonamide]	50.5	24.4	52.5	908
CC(C)(C)OC(=O)NCCCn1cnc2ccc(Oc3c(F)ccc(NS(=O)(=O)C4CCCCC4)c3C#N)cc2c1=O [Example 12, tert-butyl N-[3-[6-[2-cyano-3-(cyclohexylsulfonylamino)-6-fluoro-phenoxy]-4-oxo-quinazolin-3-yl]propyl]carbamate]	59.2	27.6	55.9	4930
CCC(C)S(=O)(=O)Nc1ccc(F)c(Oc2ccc3ncn(CCCNC(=O)OC(C)(C)C)c(=O)c3c2)c1C#N (centres unmarked) [Example 13, tert-butyl N-[3-[6-[2-cyano-6-fluoro-3-(sec-butylsulfonylamino)phenoxy]-4-oxo-quinazolin-3-yl]propyl]carbamate]	19.3	12.1	36.3	2820
CC(C)(C)OC(=O)N1CCC(CCn2cnc3ccc(Oc4c(F)ccc(NS(=O)(=O)C5CCCCC5)c4C#N)cc3c2=O)CC1 [Example 14, tert-butyl 4-[2-[6-[2-cyano-3-(cyclohexylsulfonylamino)-6-fluoro-phenoxy]-4-oxo-quinazolin-3-yl]ethyl]piperidine-1-carboxylate]	114	54.3	254	4850
CCC(C)S(=O)(=O)Nc1ccc(F)c(Oc2ccc3ncn(CCC4CCN(C(=O)OC(C)(C)C)CC4)c(=O)c3c2)c1C#N (centres unmarked) [Example 15, tert-butyl 4-[2-[6-[2-cyano-6-fluoro-3-(sec-butylsulfonylamino)phenoxy]-4-oxo-quinazolin-3-yl]ethyl]piperidine-1-carboxylate]	93.5	50.4	78.9	4040
CC(C)(C)OC(=O)N1CCN(CCn2cnc3ccc(Oc4c(F)ccc(NS(=O)(=O)N5CCCC5)c4C#N)cc3c2=O)CC1 [Example 16, tert-butyl 4-[2-[6-[2-cyano-6-fluoro-3-(pyrrolidin-1-ylsulfonylamino)phenoxy]-4-oxo-quinazolin-3-yl]ethyl]piperazine-1-carboxylate]	2.16	1.61	11	240
CC(C)(C)OC(=O)N1CCC(CCn2cnc3ccc(Oc4c(F)ccc(NS(=O)(=O)C5CCCC5)c4C#N)cc3c2=O)CC1 [Example 17, tert-butyl 4-[2-[6-[2-cyano-3-(cyclopentylsulfonylamino)-6-fluoro-phenoxy]-4-oxo-quinazolin-3-yl]ethyl]piperidine-1-carboxylate]	24.6	12.3	57.1	1140
CC(C)(C)OC(=O)N1CCC(CCn2cnc3ccc(Oc4c(F)ccc(NS(=O)(=O)N5CCCCC5)c4C#N)cc3c2=O)CC1 [Example 18, tert-butyl 4-[2-[6-[2-cyano-6-fluoro-3-(1-piperidylsulfonylamino)phenoxy]-4-oxo-quinazolin-3-yl]ethyl]piperidine-1-carboxylate]	57.5	45.4	158	1460
CN(CCCn1cnc2ccc(Oc3c(F)ccc(NS(=O)(=O)N4CCCC4)c3C#N)cc2c1=O)C(=O)OC(C)(C)C [Example 19, tert-butyl N-[3-[6-[2-cyano-6-fluoro-3-(pyrrolidin-1-ylsulfonylamino)phenoxy]-4-oxo-quinazolin-3-yl]propyl]-N-methyl-carbamate]	2.31	0.93	103	≥ 10000
CN(CCCn1cnc2ccc(Oc3c(F)ccc(NS(=O)(=O)C4CCCC4)c3C#N)cc2c1=O)C(=O)OC(C)(C)C [Example 20, tert-butyl N-[3-[6-[2-cyano-3-(cyclopentylsulfonylamino)-6-fluoro-phenoxy]-4-oxo-quinazolin-3-yl]propyl]-N-methyl-carbamate]	9.2	3.34	436	≥ 10000
CC(C)(C)OC(=O)N1CCC(CCn2cnc3ccc(Oc4c(F)ccc(NS(=O)(=O)C5CCC5)c4C#N)cc3c2=O)CC1 [Example 21, tert-butyl 4-[2-[6-[2-cyano-3-(cyclobutylsulfonylamino)-6-fluoro-phenoxy]-4-oxo-quinazolin-3-yl]ethyl]piperidine-1-carboxylate]	67.2	11.7	86.8	≥ 10000
CC(C)(C)OC(=O)N1CCCC(CCn2cnc3ccc(Oc4c(F)ccc(NS(=O)(=O)C5CCCC5)c4C#N)cc3c2=O)C1 (centres unmarked) [Example 22, tert-butyl 3-[2-[6-[2-cyano-3-(cyclopentylsulfonylamino)-6-fluoro-phenoxy]-4-oxo-quinazolin-3-yl]ethyl]piperidine-1-carboxylate]	28.9	27.9	155	≥ 10000
CC(C)(C)OC(=O)N1CCCC(CCn2cnc3ccc(Oc4c(F)ccc(NS(=O)(=O)N5CCCC5)c4C#N)cc3c2=O)C1 (centres unmarked) [Example 23, tert-butyl 3-[2-[6-[2-cyano-6-fluoro-3-(pyrrolidin-1-ylsulfonylamino)phenoxy]-4-oxo-quinazolin-3-yl]ethyl]piperidine-1-carboxylate]	10.2	9.23	49.7	2300
CC(=O)N(C)CCCn1cnc2ccc(Oc3c(F)ccc(NS(=O)(=O)C4CCCC4)c3C#N)cc2c1=O [Example 24, N-[3-[6-[2-cyano-3-(cyclopentylsulfonylamino)-6-fluoro-phenoxy]-4-oxo-quinazolin-3-yl]propyl]-N-methyl-acetamide]	0.76	0.42	50.4	≥ 10000
CC(C)(C)OC(=O)N1CCN(CCn2cnc3ccc(Oc4c(F)ccc(NS(=O)(=O)C5CCCC5)c4C#N)cc3c2=O)CC1 [Example 25, tert-butyl 4-[2-[6-[2-cyano-3-(cyclopentylsulfonylamino)-6-fluoro-phenoxy]-4-oxo-quinazolin-3-yl]ethyl]piperazine-1-carboxylate]	7.06	4.14	7.63	802
CC(=O)N(C)CCCn1cnc2ccc(Oc3c(F)ccc(NS(=O)(=O)N4CCCC4)c3C#N)cc2c1=O [Example 26, N-[3-[6-[2-cyano-6-fluoro-3-(pyrrolidin-1-ylsulfonylamino)phenoxy]-4-oxo-quinazolin-3-yl]propyl]-N-methyl-acetamide]	0.55	0.32	20.5	4260
